Where a name gives a salt, the structure may show the parent alone.
Legend:
[1] = tested on: late components of human complement (C3-C9); experiment: Test Code 035 (C3-C9 inhibitor, C-Late): lysis of EAC 142 by late components of human complement; format: cell-based; conditions: two-fold serial dilution assay
Description: (§1) An active inhibitor protects C2 from C1 and C4; (ii) Test Code 035 (C3-C9 inhibitor)--This test determines the ability of the late components of human complement (C3-C9) to lyse EAC 142 in the presence of appropriate dilutions of the test compound. An active inhibitor protects EAC 142 from lysis by human C3-C9; (iii) Test Code 036 (C-Shunt inhibitor)--In this test human erythrocytes rendered fragile are lysed in autologous serum via the shunt pathway activated by cobra venom factor in the presence of appropriate dilutions of the test compound. Inhibition of the shunt pathway results in failure of lysis; (iv) Forssman Vasculitis Test--Here, the well known complement dependent lesion, Forssman vasculitis, is produced in guinea pigs by intradermal injection of rabbit anti-Forssman antiserum. The lesion is measured in terms of diameter, edema and hemorrhage and the extent to which a combined index of these is inhibited by prior intraperitoneal injection of the test compound at 200 mg/kg is then reported, unless otherwise stated; (v) Forssman Shock Test--Lethal shock is produced in guinea pigs by an i.v. injection of anti-Forssman antiserum and the harmonic mean death time of treated guinea pigs is compared with that of simultaneous controls; (vi) Complement Level Reduction Test--In this test, the above dosed guinea pigs, or others, are bled for serum and the complement level is determined in undiluted serum by the capillary tube method of U.S. Pat. No. 3,876,376 and compared to undosed control guinea pigs; and (vii) Cap 50 Test--Here, appropriate amounts of the test compound are added to a pool of guinea pig serum in vitro, after which the undiluted serum capillary tube assay referred to above is run. The concentration of compound inhibiting 50% is reported.
(§2) **Activity in wells a serial dilution assay. Higher well number indicates
(§3) higher activity. The serial dilutions are two-fold.

activated human C1 = activated human C1 (Homo sapiens, UniProt P09871); experiment: Test Code 026 (C1 inhibitor): ability of activated human C1 to destroy fluid phase human C2 in the presence of C4; format: biochemical; conditions: two-fold serial dilution assay, higher well number indicates higher activity
Description: as §1, §2, §3

shunt pathway = experiment: Test Code 036 (C-Shunt inhibitor): lysis of fragile human erythrocytes in autologous serum via shunt pathway activated by cobra venom factor; format: cell-based; conditions: Table II (intermediates); two-fold serial dilution assay
Description: as §1, §2, §3

complement system = conditions: reported in literature or known; cited from earlier work
[2] = reported in literature; cited from earlier work
[3] = tested on: total hemolytic complement activity of human serum; conditions: in vitro and in vivo, reported in literature; cited from earlier work
whole complement = experiment: Complement Level Reduction Test: whole complement in serum of dosed guinea pigs, capillary tube assay; format: in vivo; conditions: guinea pig, intraperitoneal, 200 mg/kg
[4] = Table I, higher well number indicates higher activity

Row | Molecule | C-Late 035 (C3-C9 inhibitor) [1, 4] | Cl 026 (C1 inhibitor) (activated human C1; Table I) | C-Late 035 (C3-C9 inhibitor) ([1]; Table II (intermediates)) | Cl 026 (C1 inhibitor) (activated human C1; Table II (intermediates)) | Shunt Inhibition 036 (shunt pathway) | other results
1 | Cc1ccc(C(=O)Nc2ccc(S(=O)(=O)[O-])c3cc(S(=O)(=O)[O-])cc(S(=O)(=O)[O-])c23)cc1NC(=O)c1ccc(NC(=O)Nc2ccc(C(=O)Nc3cc(C(=O)Nc4ccc(S(=O)(=O)[O-])c5cc(S(=O)(=O)[O-])cc(S(=O)(=O)[O-])c45)ccc3C)c(S(=O)(=O)[O-])c2)cc1S(=O)(=O)[O-].[Na+].[Na+].[Na+].[Na+].[Na+].[Na+].[Na+].[Na+] [8,8'-[Ureylenebis[[(2-sulfo-4,1-phenylenecarbonyl)imino]-(4-methyl-3,1-phenylenecarbonyl)imino]]di-1,3,5-naphthalenetrisulfonic acid, octasodium salt] | +1 Wells | +3 Wells | – | – | – | –
2 | Nc1ccc(C(=O)Nc2cccc(S(=O)(=O)Nc3cc(S(=O)(=O)O)cc4cc(S(=O)(=O)O)cc(S(=O)(=O)O)c34)c2)c(S(=O)(=O)O)c1 [8-[N^3-(4-Amino-2-sulfobenzoyl)metanilamido]-1,3,6-naphthalenetrisulfonic acid, tetrasodium salt] | – | – | N | +3 Wells | N | –
3 | Cc1ccc(C(=O)Nc2cc(C(=O)O)cc(C(=O)Nc3ccc(S(=O)(=O)O)c4cc(S(=O)(=O)O)cc(S(=O)(=O)O)c34)c2)cc1NC(=O)Nc1cc(C(=O)Nc2cc(C(=O)O)cc(C(=O)Nc3ccc(S(=O)(=O)O)c4cc(S(=O)(=O)O)cc(S(=O)(=O)O)c34)c2)ccc1C [5,5'-Ureylenebis[(4-methyl-3,1-phenylenecarbonyl)imino]bis[N-(4,6,8-trisulfo-1-naphthyl)isophthalamic acid], hexasodium slt] | +2 Wells | +5 Wells | – | – | – | –
4 | Cc1ccc(NC(=O)c2ccc(NC(=O)Nc3ccc(C(=O)Nc4ccc(C)c(S(=O)(=O)Nc5cc(S(=O)(=O)O)cc6cc(S(=O)(=O)O)cc(S(=O)(=O)O)c56)c4)c(S(=O)(=O)O)c3)cc2S(=O)(=O)O)cc1S(=O)(=O)Nc1cc(S(=O)(=O)O)cc2cc(S(=O)(=O)O)cc(S(=O)(=O)O)c12 [8,8'-[Ureylenebis[[(2-sulfo-4,1-phenylenecarbonyl)imino](2-methyl-4,1-phenylene)sulfonyl]imino]]di-1,3,6-naphthalenetrisulfonic acid, octasodium salt] | +2 Wells | +4 Wells | – | – | – | –
5 | Cc1ccc(C(=O)Nc2ccc(S(=O)(=O)O)c3cc(S(=O)(=O)O)cc(S(=O)(=O)O)c23)cc1NC(=O)c1ccc(N)cc1S(=O)(=O)O [8-[3-(4-Amino-2-sulfobenzamido)-p-toluamido]-1,3,5-naphthalenetrisulfonic acid, tetrasodium salt] | – | – | N | +2 Wells | N | –
6 | Cc1ccc(NC(=O)c2ccc(N)cc2S(=O)(=O)O)cc1S(=O)(=O)Nc1cc(S(=O)(=O)O)cc2cc(S(=O)(=O)O)cc(S(=O)(=O)O)c12 [8-[5-(4-Amino-2-sulfobenzamido)-o-toluenesulfonamido]-1,3,6-naphthalenetrisulfonic acid, tetrasodium salt] | – | – | N | +4 Wells | N | –
7 | heparin | – | – | – | – | – | complement inhibitor / anticomplementary effect (complement system): anticomplementary effect
8 | Cc1ccc(C(=O)Nc2cc(C(=O)O)cc(C(=O)Nc3ccc(S(=O)(=O)O)c4cc(S(=O)(=O)O)cc(S(=O)(=O)O)c34)c2)cc1N [5-(3-Amino-p-toluamido)-N-(4,6,8-trisulfo-1-naphthyl)isophthalamic acid, trisodium salt] | – | – | N | +3 Wells | N | –
9 | NC[C@H]1CC[C@H](C(=O)O)CC1 [tranexamic acid] | – | – | – | – | – | use in treatment of hereditary angioneurotic edema [2]: used with success in the treatment of hereditary angioneurotic edema
10 | Cc1ccc(C(=O)Nc2ccc(S(=O)(=O)O)c3cc(S(=O)(=O)O)cc(S(=O)(=O)O)c23)cc1NC(=O)c1cccc(NC(=O)Nc2cccc(C(=O)Nc3cc(C(=O)Nc4ccc(S(=O)(=O)O)c5cc(S(=O)(=O)O)cc(S(=O)(=O)O)c45)ccc3C)c2)c1 [Suramin, reference compound] | +2 Wells | +4 Wells | – | – | – | complement inhibitor / anticomplementary effect (complement system): moderately active as a complement inhibitor
11 | NCCCCCC(=O)O [epsilon-aminocaproic acid] | – | – | – | – | – | use in treatment of hereditary angioneurotic edema [2]: used with success in the treatment of hereditary angioneurotic edema
12 | Cc1cc(C)c(S(=O)(=O)Nc2cc(S(=O)(=O)[O-])cc3cc(S(=O)(=O)[O-])cc(S(=O)(=O)[O-])c23)cc1NC(=O)c1ccc(NC(=O)Nc2ccc(C(=O)Nc3cc(S(=O)(=O)Nc4cc(S(=O)(=O)[O-])cc5cc(S(=O)(=O)[O-])cc(S(=O)(=O)[O-])c45)c(C)cc3C)c(S(=O)(=O)[O-])c2)cc1S(=O)(=O)[O-].[Na+].[Na+].[Na+].[Na+].[Na+].[Na+].[Na+].[Na+] [8,8'-[Ureylenebis[(2-sulfo-4,1-phenylenecarbonyl)imino(4,6-dimethyl-3,1-phenylenesulfonyl)imino]]di-1,3,6-naphthalenetrisulfonic acid, octasodium salt] | +2 Wells | +5 Wells | – | – | – | –
13 | pentosan-polysulfoester | – | – | – | – | – | anticomplementary activity of human serum (reduction in total hemolytic complement activity) [3]: anticomplementary activity of human serum
14 | Cc1ccc(C(=O)Nc2ccc(S(=O)(=O)O)c3cc(S(=O)(=O)O)cc(S(=O)(=O)O)c23)cc1NC(=O)c1cc(NC(=O)Nc2cc(C(=O)O)cc(C(=O)Nc3cc(C(=O)Nc4ccc(S(=O)(=O)O)c5cc(S(=O)(=O)O)cc(S(=O)(=O)O)c45)ccc3C)c2)cc(C(=O)O)c1 [5,5"-Ureylenebis[2'-methyl-5"-[(4,6,8-trisulfo-1-naphthyl)carbamoyl]isophthalanilic acid], octasodium salt] | +2 Wells | +5 Wells | – | – | – | % Inhibition (whole complement; 30 minutes): -17%; % Inhibition (whole complement; 60 minutes): -50%; % Inhibition (whole complement; 120 minutes): -57%
15 | Cc1ccc(C(=O)Nc2ccc(S(=O)(=O)[O-])c3cc(S(=O)(=O)[O-])cc(S(=O)(=O)[O-])c23)cc1NC(=O)c1cc(NC(=O)Nc2cc(C(=O)O)cc(C(=O)Nc3cc(C(=O)Nc4ccc(S(=O)(=O)[O-])c5cc(S(=O)(=O)[O-])cc(S(=O)(=O)[O-])c45)ccc3C)c2)cc(C(=O)O)c1.[Na+].[Na+].[Na+].[Na+].[Na+].[Na+] [5,5"-Ureylenebis[2'-methyl-5'-[(4,6,8-trisulfo-1-naphthyl)carbamoyl]isophthalanilic acid], hexasodium salt] | +2 Wells | +5 Wells | – | – | – | –
16 | Cc1ccc(S(=O)(=O)Nc2ccc(S(=O)(=O)[O-])c3cc(S(=O)(=O)[O-])cc(S(=O)(=O)[O-])c23)cc1NC(=O)c1cc(N)cc(C(=O)O)c1.[Na+].[Na+].[Na+] [5-Amino-2'-methyl-5'-(4,6,8-trisulfo-1-naphthylsulfamoyl)-isophthalanilic acid, trisodium salt] | – | – | N | +2 Wells | N | –
17 | Nc1ccc2cc(S(=O)(=O)[O-])cc(O)c2c1N=Nc1ccc(NC(=O)Nc2ccc(N=Nc3c(N)ccc4cc(S(=O)(=O)[O-])cc(O)c34)c(S(=O)(=O)[O-])c2)cc1S(=O)(=O)[O-].[Na+].[Na+].[Na+].[Na+] [chlorazol fast pink, 3,3'-ureylenebis[6-(2-amino-8-hydroxy-6-sulfo-1-naphthylazo)benzenesulfonic acid], tetrasodium salt] | – | – | – | – | – | complement inhibitor / anticomplementary effect (complement system): anticomplementary effect
18 | Cc1ccc(C(=O)Nc2ccc(S(=O)(=O)O)c3cc(S(=O)(=O)O)cc(S(=O)(=O)O)c23)cc1NC(=O)c1cc(N)cc(C(=O)O)c1 [5-Amino-2'-methyl-5'-[(4,6,8-trisulto-1-naphthyl)carbamoyl]isophthalanilic acid, trisodium salt] | – | – | N | +2 Wells | N | –
